Reference: patent US20200338519A1, “METHOD FOR PREPARING LIPOSOME” (priority 2015, published 2020)

Assay: Solubility in water and aqueous medium
Format: physicochemical

For moexitecan, the “Solubility in water and an aqueous medium” value was “insoluble or almost insoluble”.
